Experiments:
PC-12 cells = assay: 14C-choline incorporation into phospholipids in PC-12 cells; format: cell-based; conditions: 5 μM fatty acid, 18 hr pre-incubation, then 14C-choline 2.5 hr; FIG. 1
Method: PC-12 cells were maintained in Dulbecco's modified Eagle's medium (DMEM)+10% fetal bovine serum (FBS). For experiments, cells were grown in quintuplicate collagen-coated 35 millimeter (mm) dishes. Cells were incubated for 18 hours (hr) in serum-free DMEM containing 28 μM choline+/−5 micromolar (μM) of DHA, oleic acid, or palmitic acid. Cells were then labeled for 2.5 hr with 0.5 microcurie (μCi)/ml ^14C-choline in serum-free DMEM containing 10-micromolar (μM) choline.
Cells were homogenized in 100 volumes of ice-cold deionized water using a tissue degrader (Polytron PT 10-35, Kinematica AG, Switzerland); 1 ml of aliquots were then mixed with 3 ml of chloroform+methanol mixture (2:1 v/v) and vortexed vigorously for 30 seconds. After cooling for 1 h on ice, the mixture was mixed sequentially with 3 ml of chloroform+methanol mixture (2:1 v/v) and 1 ml of ice-cold deionized water. The mixture was vortexed vigorously and allowed to stand overnight in the cold room (18 h). The organic (lower) and aqueous (upper) phases of the mixtures were separated by centrifugation (10 min at 4° C.; 1000 g). An aliquot (2 ml) of the upper phase was used for determination of CDP-Choline (see below), and 0.1-0.4 ml aliquots of the lower phase were dried under vacuum for phospholipid analysis. Residues of 0.1 ml aliquots of the lower phase were assayed for total phospholipid content by measuring phosphorus. Residues of 0.4 ml aliquots of the lower phase were reconstituted in 40 μl methanol and subjected to thin-layer chromatography using silica G plates (Adsorbosil Plus-1®, Alltech), and a system consisting of chloroform/ethanol/triethylamine/water (30:34:30:8) as the mobile phase. Phospholipid standards were used to identify the corresponding bands under UV light after the plates were sprayed with 0.1% diphenylhexatriene in petroleum ether. Bands for individual phospholipid classes (PC, PE, SM, PS and PI) were scraped off the plates and extracted into 1 ml of methanol; dried under vacuum; and assayed for phosphorus content. Total phosphorus was determined by comparison with standard curves by using KH2PO4 run with each assay. […] Absorbance was measured spectrophotometrically at 820 nm. Phospholipid mass was determined by multiplying the phosphorus content by 25.
In order to assess the effect of omega-3 fatty acids on phospholipid synthesis, PC-12 cells were incubated with ^14C-labeled choline, following an 18-hour pre-incubation with or without DHA. Incorporation of label into phospholipids was then measured. […]
To further characterize the stimulation of phospholipid synthesis by omega-3 fatty acids, PC-12 cells were pre-treated with different doses of DHA and exposed to labeled choline as described in Example 1, then incorporation of ^14C-label into phospholipids was measured. […]

SHSY-5Y cells = assay: 14C-choline incorporation into phospholipids in SHSY-5Y cells; format: cell-based, human; conditions: for Phospholipid synthesis enhanced: 10 μM fatty acid, 18 hr, FIG. 3A
Method: SHSY-5Y cells were grown to near confluency in DMEM+10% FBS in 35 mm dishes. Cells were incubated for 18 hr in serum-free DMEM+1% FBS containing 30 μM choline+/−10 μM of DHA, arachidonic acid, or palmitic acid. Cells were then labeled, and labeled phospholipids were quantified as described for Example 1.
DHA was dissolved in ethanol to a […] concentration and frozen in 10 microliter aliquots at −80° C. For each experiment, one aliquot was diluted in ethanol to 10 micromolar; the volume giving the desired final solution in incubation medium was mixed with an equal volume of BSA solution (1 gm/ml).
The effect of omega-6 fatty acids on phospholipid synthesis was next examined in SHSY-5Y cells, a human neuroblastoma cell line. In this case, phospholipid synthesis was enhanced by arachidonic acid, an omega-6 fatty acid, but not by DHA or palmitic acid (FIG. 3A).
The effect of arachidonic acid on phospholipid synthesis in SHSY-5Y cells was further characterized as described for omega-3 fatty acids and PC-12 cells in Example 2.

[1] = system: brain phospholipid levels; assay: Brain phospholipid levels in gerbils given UMP diet and/or PUFA by gavage; format: in vivo, gerbil; conditions: for Brain phospholipid levels: Table 6
Method: Cells were homogenized in 100 volumes of ice-cold deionized water using a tissue degrader (Polytron PT 10-35, Kinematica AG, Switzerland); 1 ml of aliquots were then mixed with 3 ml of chloroform+methanol mixture (2:1 v/v) and vortexed vigorously for 30 seconds. After cooling for 1 h on ice, the mixture was mixed sequentially with 3 ml of chloroform+methanol mixture (2:1 v/v) and 1 ml of ice-cold deionized water. The mixture was vortexed vigorously and allowed to stand overnight in the cold room (18 h). The organic (lower) and aqueous (upper) phases of the mixtures were separated by centrifugation (10 min at 4° C.; 1000 g). An aliquot (2 ml) of the upper phase was used for determination of CDP-Choline (see below), and 0.1-0.4 ml aliquots of the lower phase were dried under vacuum for phospholipid analysis. Residues of 0.1 ml aliquots of the lower phase were assayed for total phospholipid content by measuring phosphorus. Residues of 0.4 ml aliquots of the lower phase were reconstituted in 40 μl methanol and subjected to thin-layer chromatography using silica G plates (Adsorbosil Plus-1®, Alltech), and a system consisting of chloroform/ethanol/triethylamine/water (30:34:30:8) as the mobile phase. Phospholipid standards were used to identify the corresponding bands under UV light after the plates were sprayed with 0.1% diphenylhexatriene in petroleum ether. Bands for individual phospholipid classes (PC, PE, SM, PS and PI) were scraped off the plates and extracted into 1 ml of methanol; dried under vacuum; and assayed for phosphorus content. Total phosphorus was determined by comparison with standard curves by using KH2PO4 run with each assay. To each sample was added 0.5 ml of 4.5% HclO4/27% H2SO4 and tubes were heated at 180° C. for 3 h. After cooling to room temperature, 5 ml of the color reagent (a 10:1 dilution of solutions containing 2.5 mg/ml ammonium molybdate, 8.2 mg/ml sodium acetate and 100 mg/ml ascorbic acid respectively) was added and the tubes were incubated for 2 h, 37° C. Absorbance was measured spectrophotometrically at 820 nm. Phospholipid mass was determined by multiplying the phosphorus content by 25.
Control standard diet (Table 4) consisted of Teklad Global 16% protein rodent diet (Harlan Teklad, Madison, Wis.), which contained 0.1% choline chloride (CC), corresponding to a daily dose of 50 mg/kg/day. UMP was provided as 0.5% UMP·2Na^+ weight/weight, added to the control diet, also prepared by Harlan Teklad, corresponding to 240 mg/kg/day UMP. DHA was administered as 300 mg/kg/day in 200 microliter (mcL)/day 5% Arabic Gum solution, while groups not receiving DHA were administered vehicle (5% Arabic Gum) alone. DHA was provided by Nu-Chek Prep (Elysian, Minn.) and UMP by Numico (Wagenigen, NL).
Gerbils were anesthetized with ketamine and xylazine (80 and 10 mg/kg bwt, i.p.) and sacrificed by immersing the head into liquid nitrogen for 2 min, followed by decapitation. Brains were immediately and quickly (30 seconds) removed using a bone rongeur and stored at −80° C.
Frozen brain hemispheres were weighed and homogenized in 100 volumes of ice-cold deionized water using a tissue degrader (Polytron PT 10-35, Kinematica AG, Switzerland), then analyzed as described in Example 1.
Protein in whole brain homogenate sample was measured for using bicinchoninic acid reagent (Perkin Elmer, Norwalk, Conn., USA). DNA was measured by measuring 460 nm emission of samples on a fluorometer in the presence of bisbenzimidizole, a fluorescent dye known as Hoechst H 33258 (American Hoechst Corporation), which has an excitation maximum at 356 nm and an emission maximum of 458 when bound to DNA.
Male gerbils weighing 80-100 g were divided into 4 groups of 8 gerbils and administered the supplements depicted in Table 1: […]

[2] = system: brain phospholipid levels; assay: Brain phospholipid levels in rat pups of treated pregnant and nursing mothers; format: in vivo; conditions: rat pups, postnatal day 20, mean
Method: In another study, pregnant rats were allowed to consume ad libitum, for 10 days before parturition and 20 days while nursing, either a choline-containing control diet or this diet supplemented with uridine as UMP; half of each group also received DHA or its diluent daily, by gavage. Pups were then sacrificed and brain slices were examined to determine numbers of hippocampal dendritic spines.
Pregnant and nursing rats were administered DHA and/or uridine as described in Example 9. At 20 days post-birth, rats were sacrificed and brain samples were obtained and assayed for phospholipids. Administration of DHA alone increased brain PC, PI, PE, and sphingomyelin (SM) per cell (DNA) by 36, 166, 38, and 78%, respectively. UMP markedly amplified the effects of DHA to 66, 210, 68, and 99% of control, respectively (Table 8). These increases were greater than those observed in adult animals. Similar results were obtained when normalizing to protein (Table 9). Thus, administration of DHA and/or uridine to pregnant and nursing mothers is able to increase phospholipid levels in the offspring.

brain CDP-choline levels = assay: Brain CDP-choline and CDP-ethanolamine levels in gerbils; format: in vivo, gerbil; conditions: 28 days
Text: FIGS. 5A and 5B. FIG. 5A illustrates the effect Effects of DHA on brain CDP-choline levels (FIG. 5A) and while FIG. 5B illustrates the effect of DHA on brain CDP-ethanolamine levels (FIG. 5B). Groups of 8 gerbils received either a control or a UMP-containing diet, and, by gavage, DHA (in a vehicle of 5% gum Arabic solution) or 5% gum Arabic solution alone for 28 days. On the 29th day brains were harvested and assayed for CDP-choline. Data are presented as means±SEM. Statistical analysis was performed using one- or two-way ANOVA followed by Tukey test. a: P<0.05 when compared with the values for control diet plus vehicle group; b: P<0.05 when compared with values for UMP diet plus vehicle group.
Aliquots (2 ml) of the upper (aqueous) phase were dried under a vacuum, reconstituted, and injected into an HPLC. The dried samples were reconstituted in 100-200 μl water and were analyzed by HPLC on an anion exchange column (Alltech Hypersil APS-2, […], 250×4.6 mm). CDP-choline was eluted with a linear gradient of buffers A (H3PO4, 1.75 mM, pH 2.9) and B (NaH2PO2, 500 mM, pH 4.5) from 0 to 100% B over period of 30 min. With this system, CDP-choline was resolved from closely co-eluting substances such as UMP in an isocratic system over a period of 40 min. The retention time for CDP-choline was 9.5 min. The column was washed with buffer B at the end of each experiment and every several days to remove retained nucleotides. Individual nucleotide peaks were detected by UV absorption at 280 nm and were identified by comparison with the positions of authentic standards, as well as by the addition of nucleotide standards to samples.
To determine the effect of PUFA administration on CDP-choline levels, brain CDP-choline levels were measured in the animals from the previous Example. Administration of DHA and/or UMP decreased CDP-choline levels (FIG. 5A) and CDP-ethanolamine levels (FIG. 5B). DHA reduced CDP-choline levels by 26% (compared with those receiving just the control diet and DHA's vehicle), and in UMP-treated gerbils by 21% (compared with those receiving UMP-containing diet and DHA's vehicle) (both P<0.05).

[3] = Table 9, nmol per microgram DNA

CCCCCCCC/C=C\CCCCCCCC(=O)O [oleic acid, reference compound]
Phosphatidylcholine (PC) synthesis significantly increased (incorporation of 14C label into PC) (PC-12 cells): not

CCCCCCCCCCCCCCCC(=O)O [palmitic acid, reference compound]
Phospholipid synthesis enhanced (SHSY-5Y cells): not | Phosphatidylcholine (PC) synthesis significantly increased (incorporation of 14C label into PC) (PC-12 cells): not

CCC=CCC=CCC=CCC=CCC=CCCCC(=O)O [EPA, 5,8,11,14,17-eicosapentaenoic acid]
Brain phospholipid levels ([1]; 3 weeks): increased

CCCCCC=CCC=CCC=CCC=CCCCC(=O)O [AA, 5,8,11,14-eicosatetraenoic acid]
Phospholipid synthesis enhanced (SHSY-5Y cells): enhanced | Synthesis of total phospholipids, PC, and phosphatidylethanolamine (SHSY-5Y cells; range of dosages, FIG. 3B): increased | Brain phospholipid levels ([1]; 3 weeks): increased

O=c1ccn([C@@H]2O[C@H](COP(=O)(O)O)[C@@H](O)[C@H]2O)c(=O)[nH]1 [UMP, uridine monophosphate]
PC ([2]; Table 8, nmol per mg protein): 95.3 nmol/mg protein | PE ([2]; Table 8, nmol per mg protein): 75.6 nmol/mg protein | PI ([2]; Table 8, nmol per mg protein): 3.92 nmol/mg protein | SM ([2]; Table 8, nmol per mg protein): 5.27 nmol/mg protein | Total Phospholipids ([2]; Table 8, nmol per mg protein): 282.2 nmol/mg protein | PC [2, 3]: 8.11 nmol/microgram DNA | PE [2, 3]: 6.56 nmol/microgram DNA | PI [2, 3]: 0.352 nmol/microgram DNA | SM [2, 3]: 0.458 nmol/microgram DNA | Total Phospholipids [2, 3]: 24.78 nmol/microgram DNA | CDP-choline levels (FIG. 5A) (brain CDP-choline levels): decreased | CDP-ethanolamine levels (FIG. 5B) (brain CDP-choline levels): decreased | Effects on brain phospholipids after 1 week of treatment ([1]; 1 week): no significant effects | Increases in brain phospholipids ([1]; 3 weeks): smaller but still significant increases | Increase in levels of total phospholipids over control group ([1]; 4 weeks, gerbil brain): 5% | Total PtdCho ([1]; Table 5 part A): 171 ± 8 nmol/mg prt | Total PtdEtn ([1]; Table 5 part A): 84 ± 8 nmol/mg prt | Total PtdSer ([1]; Table 5 part A): 35 ± 3 nmol/mg prt | Total Ptdins ([1]; Table 5 part A): 31 ± 2 nmol/mg prt | Total PtdEtn ([1]; Table 5 part B, One Week): 63 ± 4 nmol/mg prt | Total PtdSer ([1]; Table 5 part B, One Week): 39 ± 1 nmol/mg prt | Total Ptdins ([1]; Table 5 part B, One Week): 20 ± 4 nmol/mg prt | Total PtdEtn ([1]; Table 5 part B, Three Weeks): 87 ± 4 nmol/mg prt | Total PtdSer ([1]; Table 5 part B, Three Weeks): 42 ± 2 nmol/mg prt | Total Ptdins ([1]; Table 5 part B, Three Weeks): 25 ± 1 nmol/mg prt

Source: US10736912B2, “Compositions containing PUFA and/or uridine and methods of use thereof” (MASSACHUSETTS INSTITUE OF TECHNOLOGY, priority 2005, dated 2020)
